The values below come from PMC8752738, “A propolis-derived small molecule ameliorates metabolic syndrome in obese mice by targeting the CREB/CRTC2 transcriptional complex” (Nature Communications, 2022).

Structures are written as SMILES. Values joined by “and” are separate entries in the source; they are usually repeats but may differ in a detail not shown here. Equal entries are not always repeated.

T1 sequence (P16220 whole entry): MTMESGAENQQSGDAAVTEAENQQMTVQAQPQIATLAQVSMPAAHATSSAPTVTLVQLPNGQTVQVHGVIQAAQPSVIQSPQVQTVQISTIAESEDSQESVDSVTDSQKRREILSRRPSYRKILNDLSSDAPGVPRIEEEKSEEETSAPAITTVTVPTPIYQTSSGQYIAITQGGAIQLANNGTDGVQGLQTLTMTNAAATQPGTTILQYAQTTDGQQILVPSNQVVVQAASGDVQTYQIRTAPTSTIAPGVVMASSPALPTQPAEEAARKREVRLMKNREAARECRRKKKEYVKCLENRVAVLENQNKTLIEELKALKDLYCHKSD

One test concerns tissue mRNA levels. Description: Quantitative PCR of tissue gene expression in treated mice. The format is in vivo, mouse. Particulars: CRTC2KO mice; Met 200mg/kg or APC-20. Here is the method:
Total RNA from cells and tissues was extracted by Trizol (Invitrogen) and reverse-transcribed into cDNA using the prime script RT reagent kit with gDNA eraser (Takara). The mRNA levels were determined using the SYBR-green PCR kit (Takara) with ABIPRISM 7900HT Sequence detector (ABI) according to the manufacturer’s protocol. The quantitative qPCR primers used in this work are listed in Supplementary Table 1. Ribosomal L32 mRNA levels were used as an internal control.
As to `CN(C)C(=N)NC(=N)N` [Met], the “Mean Diff. (Veh. vs. treated; head of the quantity not shown, section just before Figure 7h)” value is -0.1815.

The test is the same for the next values; noted with them: Figure 7g right, Crtc2KO mice, Met 200mg/kg, single animals.
On to `CN(C)C(=N)NC(=N)N` [Met], for which the “Lxra mRNA level” value was 0.8758 and 0.8882 and 0.7033 and 0.8771 and 1.013.

Still in this test, the particulars now being: Figure 7g right, WT mice, Met 200mg/kg, single animals.
Consider `CN(C)C(=N)NC(=N)N` [Met], for which the “Lxra mRNA level” value was 1.062 and 1.197 and 0.4513 and 1.258 and 0.814.

The test is the same for the next values; noted with them: WT mice; Met 200mg/kg or APC-20.
Take `CN(C)C(=N)NC(=N)N` [Met]: the “Mean Diff. (Veh. vs. treated; head of the quantity not shown, section just before Figure 7h)” value is on record as 0.07313.

Tested on in another test: not listed separately
The experiment in a line: Cholesterol, TG, NEFA and glycerol in serum and liver. The format is in vivo, mouse. Further details: liver NEFA, Mean 2 (group mean) / Plasma VLDL cholesterol in db/db mice (VLDL-C) / Plasma VLDL cholesterol in db/db mice, group mean / TC in liver_CT2KO (total cholesterol in the liver of CRTC2-KO) / TC in liver_WT (total cholesterol in the liver) / TC in liver_WT, mean / TC in liver_WT, Mean Diff. VEH vs. drug / TC in liver_CRTC2KO, mean / TC in liver_CRTC2KO, Mean Diff. VEH vs. drug: unit not given here. Particulars: liver, CRTC2-KO mice, individual animals, Supp.fig.5d. On the procedure:
Serum total cholesterol (TC), LDL cholesterol (LDL-C), and HDL cholesterol (HDL-C) levels were detected using commercial kits (Beihua, China), and serum VLDL protein was determined by ELISA (Jiancheng, China).
The plasma TG and NEFA levels were determined using corresponding kits from Beihua (China) and WAKO (Japan), respectively. The TG levels of liver and WAT were tested by TG kit (Applygene, China). The NEFA in the liver and WAT were extracted by chloroform–methanol and then subjected to NEFA assay (WAKO).
For `CN(C)C(=N)NC(=N)N` [Met], the “TC in liver_CT2KO (total cholesterol in the liver of CRTC2-KO)” value was 69.3199 and 58.5752 and 53.7207 and 41.7006 and 49.9498 and 60.0658.

Still in this test, the particulars now being: liver, WT mice, individual animals, Supp.fig.5d.
On to `CN(C)C(=N)NC(=N)N` [Met], for which the “TC in liver_WT (total cholesterol in the liver)” value is 51.5785 and 54.6034 and 57.0386 and 53.1363 and 64.5936 and 53.9126.

Another test addresses T1, CREB-CRTC2 interaction (Homo sapiens, UniProt P16220).
T1 construct: expressed in transfected cells; host or cells: HEK293T
Description: CREB–CRTC2 mammalian two-hybrid assay (GAL4-Luc reporter). The format is cell-based. Conditions: Figure 1f; CREB-CRTC2 two-hybrid assay; DMSO control about 100.
Take `O=C(O)/C=C/c1ccc(O)cc1` [P1, (E)-p-coumaric acid]: the “Relative Gal4-LUC activity, single replicates” value (“Relative Gal4-LUC activity” for short) was 70.496 and 71.1658 and 69.3726. Regarding `CC(C)=CCc1cc(/C=C/C(=O)O)ccc1O` [P2, drupanin], the “Relative Gal4-LUC activity” value was 61.0304 and 51.9945 and 58.5603. For `O=C(/C=C/c1ccc(O)cc1)OCc1ccccc1` [P5, (E)-p-coumaric acid benzyl ester], the “Relative Gal4-LUC activity” value was 49.3178 and 78.5049 and 35.7022.

Turning to `CC(C)=CCc1cc(/C=C/C(=O)O)cc(C/C=C(\C)CO)c1O` [P7, capillartemisin A], the “Relative Gal4-LUC activity” value was 126.493 and 128.204 and 133.801. Consider `O=C(O)/C=C/c1ccc(O)c(O)c1` [P9, (E)-caffeic acid], for which the “Relative Gal4-LUC activity” value was 57.5791 and 77.7251 and 73.1602. With `CCOC(=O)/C=C/c1ccc(O)c(O)c1` [P10, (E)-caffeic acid ethyl ester], the “Relative Gal4-LUC activity” value is 123.291 and 121.37 and 118.215. The same measure, in the same setting: the result for `CC1(C)C=Cc2cc(C=CC(=O)O)ccc2O1` [P11, 2,2-dimethylchromene-6-propenoic acid] reads 49.0084 and 29.9945 and 36.8575.

Consider `O=c1c(O)c(-c2ccc(O)cc2)oc2cc(O)cc(O)c12` [P12, kaempferol], for which the “Relative Gal4-LUC activity” value is 73.7017 and 114.823 and 172.832. `COc1ccc(-c2oc3cc(O)cc(O)c3c(=O)c2O)cc1` [P13, kaempferide]: the “Relative Gal4-LUC activity” value is 126.299 and 72.1957 and 55.4453. Turning to `O=c1c(O)c(-c2ccc(O)c(O)c2)oc2cc(O)cc(O)c12` [P14, quercetin], the “Relative Gal4-LUC activity” value is 130.988 and 153.776 and 136.769. `COc1c(O)cc2oc(-c3ccc(O)cc3)c(O)c(=O)c2c1O` [P15, 6-methoxykaempferol]: the “Relative Gal4-LUC activity” value is 91.5539 and 105.994 and 143.876. Regarding `COc1ccc(-c2oc3cc(O)c(OC)c(O)c3c(=O)c2O)cc1` [P16, betuletol], the “Relative Gal4-LUC activity” value is 48.4823 and 30.8552 and 26.2372. Turning to `COc1ccc(-c2oc3cc(O)c(O)c(O)c3c(=O)c2OC)cc1` [P17, 5,6,7,-trihydroxy-3,4′-dimethoxyflavone], the “Relative Gal4-LUC activity” value was 79.2706 and 131.512 and 110.674.

As for `O=C1C[C@@H](c2ccccc2)Oc2cc(O)cc(O)c21` [P18, pinocembrin], the “Relative Gal4-LUC activity” value is 63.0454 and 51.143 and 49.1354.

`O=C1c2c(O)cc(O)cc2O[C@H](c2ccc(O)cc2)[C@H]1O` [P20, aromadendrin]: the “Relative Gal4-LUC activity” value was 126.871 and 59.3858 and 61.7309. The same measure, in the same setting: the result for `COc1ccc(C2Oc3cc(O)cc(O)c3C(=O)C2O)cc1` (stereo not shown) [P21, dihydrokaempferide] reads 44.892 and 54.8815 and 50.4357.

Still in this test, the particulars now being: HEK293T, isolated compound 25 μM.
Consider `O=C(O)/C=C/c1ccc(O)cc1` [P1, (E)-p-coumaric acid], for which the “reporter activity of CREB–CRTC2 two-hybrid assay” value (“reporter activity” for short) is recorded as “significantly inhibited”. In the case of `CC(C)=CCc1cc(/C=C/C(=O)O)ccc1O` [P2, drupanin], the “reporter activity” value is on record as “significantly inhibited”. In the case of `O=C(/C=C/c1ccc(O)cc1)OCc1ccccc1` [P5, (E)-p-coumaric acid benzyl ester], the “reporter activity” value was “significantly inhibited”.
